Results as given in patent publication US12479845B2, “Imidazopyridine derivative compounds and use of same” (HANMI PHARM. CO., LTD., priority 2019, dated 2025).

Experiments:
[1] = target: LSD1 (Homo sapiens (Human), UniProt O60341); experiment: Biochemical analysis of LSD1 histone demethylase inhibition (BPS Bioscience LSD1 fluorescence analysis kit, HRP/Amplex Red); conditions: demethylation of Lys4 of histone H3
Protocol: The biochemical inhibition activity of the synthesized compounds on LSD1 was measured. The activity measurement was performed using LSD1 fluorescence analysis kit (available from BPS Bioscience Co., Ltd., Catalog No: 50106). This analysis kit is designed to measure activity of LSD1 enzyme. H2O2 generated upon demethylation of Lys4 moiety of histone H3 by LSD1 is reacted with HRP/Amplex Red reagent to form fluorescent Resorufin, which is measured by this kit, thereby confirming demethylation.
The results are expressed as an IC50 value. As for a control, GSK2879552 (available from GlaxoSmithKline USA) was used.

[2] = test system: NCI-H1417 cells; experiment: Cell growth suppression test (CellTiter-Glo Luminescent Cell Viability Assay, 10 days treatment); format: cell-based; conditions: treated for 10 days
Protocol: Cell growth suppression effects of the synthesized compounds on NCI-H1417 cells were identified. The cells were treated with the synthesized compounds for 10 days. Then, in order to test the cell growth suppression, CellTiter-Glo Luminescent Cell Viability Assay (available from Promega, USA) was used. This test is to measure emission signals proportional to the number of ATPs based on a fixed amount of ATPs, which represents the presence of metabolically active cells, thereby determining the number of viable cells. The results are expressed as a Gl50 value. As for a control, GSK2879552 (available from GlaxoSmithKline USA) was used.

IC50 [1] [nM] | GI50 [2] [nM] | GI50 ([2]; Homo sapiens, 240 h) [nM] | Compound
45 | 17 | – | 4-(7-((R)-3-aminopiperidine-1-yl)-3-(2-fluoro-4-((S)-3-hydroxypyrrolidine-1-yl)phenyl)-3H-imidazo[4,5-b]pyridine-2-yl)-2-fluorobenzonitrile [Example 35]
56 | – | 90 | Cc1ccc(-n2c(-c3ccc(C#N)cc3)nc3c(N4CCC[C@@H](N)C4)ccnc32)cc1 [Example 1, (R)-4-(7-(3-aminopiperidine-1-yl)-3-(p-tolyl)-3H-imidazo[4,5-b]pyridine-2-yl)benzonitrile]
53 | – | 230 | N#Cc1ccc(-c2nc3c(N4CCC(N)CC4)ccnc3n2-c2ccc(C3CC3)cc2)cc1 [Example 3, 4-(7-(4-aminopiperidine-1-yl)-3-(4-cyclopropylphenyl)-3H-imidazo[4,5-b]pyridine-2-yl)benzonitrile]
44 | – | 103 | CN[C@@H]1CCCN(c2ccnc3c2nc(-c2ccc(C#N)cc2)n3-c2ccc(C3CC3)cc2)C1 [Example 4, (R)-4-(3-(4-cyclopropylphenyl)-7-(3-(methylamino)piperidine-1-yl)-3H-imidazo[4,5-b]pyridine-2-yl)benzonitrile]
101 | – | 159 | N#Cc1ccc(-c2nc3c(N4CCC[C@@H](N)C4)ccnc3n2-c2ccc(C3CC3)cc2)cc1 [Example 5, (R)-4-(7-(3-aminopiperidine-1-yl)-3-(4-cyclopropylphenyl)-3H-imidazo[4,5-b]pyridine-2-yl)benzonitrile]
26 | – | 99 | Cc1ccc(-n2c(-c3ccc(C#N)c(F)c3)nc3c(N4CCC[C@@H](N)C4)ccnc32)c(F)c1 [Example 7, (R)-4-(7-(3-aminopiperidine-1-yl)-3-(2-fluoro-4-methylphenyl)-3H-imidazo[4,5-b]pyridine-2-yl)-2-fluorobenzonitrile]
23 | – | 56 | N#Cc1ccc(-c2nc3c(N4CCCC[C@@H](N)C4)ccnc3n2-c2ccc(C3CC3)cc2)cc1F [Example 8, (R)-4-(7-(3-aminoazepane-1-yl)-3-(4-cyclopropylphenyl)-3H-imidazo[4,5-b]pyridine-2-yl)-2-fluorobenzonitrile]
38 | – | 100 | N#Cc1ccc(-c2nc3c(N4CCC[C@@H](N)C4)ccnc3n2-c2ccc(N3CCCCC3)cc2)cc1F [Example 9, (R)-4-(7-(3-aminopiperidine-1-yl)-3-(4-(piperidine-1-yl)phenyl)-3H-imidazo[4,5-b]pyridine-2-yl)-2-fluorobenzonitrile]
40 | – | 30 | N#Cc1ccc(-c2nc3c(N4CCC[C@@H](N)C4)ccnc3n2-c2ccc(N3CCCCC3)cc2F)cc1F [Example 10, (R)-4-(7-(3-aminopiperidine-1-yl)-3-(2-fluoro-4-(piperidine-1-yl)phenyl)-3H-imidazo[4,5-b]pyridine-2-yl)-2-fluorobenzonitrile]
21 | – | 24 | N#Cc1ccc(-c2nc3c(N4CCC[C@@H](N)C4)ccnc3n2-c2ccc(C3CC3)cc2F)cc1F [Example 11, (R)-4-(7-(3-aminopiperidine-1-yl)-3-(4-cyclopropyl-2-fluorophenyl)-3H-imidazo[4,5-b]pyridine-2-yl)-2-fluorobenzonitrile]
24 | – | – | CN[C@@H]1CCCN(c2ccnc3c2nc(-c2ccc(C#N)c(F)c2)n3-c2ccc(N3CCCC3)cc2)C1 [Example 12, (R)-2-fluoro-4-(7-(3-(methylamino)piperidine-1-yl)-3-(4-(pyrrolidine-1-yl)phenyl)-3H-imidazo[4,5-b]pyridine-2-yl)benzonitrile]
23 | – | 62 | N#Cc1ccc(-c2nc3c(N4CCC[C@@H](N)C4)ccnc3n2-c2ccc(N3CCCC3)cc2)cc1F [Example 13, (R)-4-(7-(3-aminopiperidine-1-yl)-3-(4-(pyrrolidine-1-yl)phenyl)-3H-imidazo[4,5-b]pyridine-2-yl)-2-fluorobenzonitrile]
26 | – | – | CN(C)c1ccc(-n2c(-c3ccc(C#N)c(F)c3)nc3c(N4CCC[C@@H](N)C4)ccnc32)cc1 [Example 14, (R)-4-(7-(3-aminopiperidine-1-yl)-3-(4-(dimethylamino)phenyl)-3H-imidazo[4,5-b]pyridine-2-yl)-2-fluorobenzonitrile]
38 | – | 46 | N#Cc1ccc(-c2nc3c(N4CCC[C@@H](N)C4)ccnc3n2-c2c(F)cc(C3CC3)cc2F)cc1F [Example 18, (R)-4-(7-(3-aminopiperidine-1-yl)-3-(4-cyclopropyl-2,6-difluorophenyl)-3H-imidazo[4,5-b]pyridine-2-yl)-2-fluorobenzonitrile]
29 | – | 18 | N#Cc1ccc(-c2nc3c(N4CCC[C@@H](N)C4)ccnc3n2-c2c(F)cc(N3CCCC3)cc2F)cc1F [Example 19, (R)-4-(7-(3-aminopiperidine-1-yl)-3-(2,6-difluoro-4-(pyrrolidine-1-yl)phenyl)-3H-imidazo[4,5-b]pyridine-2-yl)-2-fluorobenzonitrile]
17 | – | 4.8 | COC1CCN(c2ccc(-n3c(-c4ccc(C#N)c(F)c4)nc4c(N5CCC[C@@H](N)C5)ccnc43)c(F)c2)C1 (stereo partly drawn) [Example 23, 4-(7-((R)-3-aminopiperidine-1-yl)-3-(2-fluoro-4-(3-methoxypyrrolidine-1-yl)phenyl)-3H-imidazo[4,5-b]pyridine-2-yl)-2-fluorobenzonitrile]
19 | – | 7.6 | CO[C@@H]1CCN(c2ccc(-n3c(-c4ccc(C#N)c(F)c4)nc4c(N5CCC[C@@H](N)C5)ccnc43)c(F)c2)C1 [Example 24, 4-(7-((R)-3-aminopiperidine-1-yl)-3-(2-fluoro-4-((R)-3-methoxypyrrolidine-1-yl)phenyl)-3H-imidazo[4,5-b]pyridine-2-yl)-2-fluorobenzonitrile]
38 | – | 4.4 | CO[C@H]1CCN(c2ccc(-n3c(-c4ccc(C#N)c(F)c4)nc4c(N5CCC[C@@H](N)C5)ccnc43)c(F)c2)C1 [Example 25, 4-(7-((R)-3-aminopiperidine-1-yl)-3-(2-fluoro-4-((S)-3-methoxypyrrolidine-1-yl)phenyl)-3H-imidazo[4,5-b]pyridine-2-yl)-2-fluorobenzonitrile]
– | – | 39 | CO[C@H]1CCN(c2ccc(-n3c(-c4ccc(C#N)c(F)c4)nc4c(N5CCC6(CCNC6)C5)ccnc43)c(F)c2)C1 (stereo partly drawn) [Example 65, 2-fluoro-4-(3-(2-fluoro-4-((S)-3-methoxypyrrolidine-1-yl)phenyl)-7-(2,7-diazaspiro[4.4]nonane-2-yl)-3H-imidazo[4,5-b]pyridine-2-yl)benzonitrile]
– | – | 23 | CO[C@H]1CCN(c2ccc(-n3c(-c4ccc(C#N)c(F)c4)nc4c(N5CCC6(CC5)CNC6)ccnc43)c(F)c2)C1 [Example 66, (S)-2-fluoro-4-(3-(2-fluoro-4-(3-methoxypyrrolidine-1-yl)phenyl)-7-(2,7-diazaspiro[3.5]nonane-7-yl)-3H-imidazo[4,5-b]pyridine-2-yl)benzonitrile]
– | – | > 1000 | CO[C@H]1CCN(c2ccc(-n3c(-c4ccc(C#N)c(F)c4)nc4c(N5CC6COCC6C5)ccnc43)c(F)c2)C1 (stereo partly drawn) [Example 68, 2-fluoro-4-(3-(2-fluoro-4-((S)-3-methoxypyrrolidine-1-yl)phenyl)-7-(tetrahydro-1H-furo[3,4-c]pyrrole-5(3H)-yl)-3H-imidazo[4,5-b]pyridine-2-yl)benzonitrile]
– | – | > 1000 | CO[C@H]1CCN(c2ccc(-n3c(-c4ccc(C#N)c(F)c4)nc4c(N5CC6(CNC6)C5)ccnc43)c(F)c2)C1 [Example 69, (S)-2-fluoro-4-(3-(2-fluoro-4-(3-methoxypyrrolidine-1-yl)phenyl)-7-(2,6-diazaspiro[3.3]heptane-2-yl)-3H-imidazo[4,5-b]pyridine-2-yl) benzonitrile]
– | – | 34 | CO[C@H]1CCN(c2ccc(-n3c(-c4ccc(C#N)c(F)c4)nc4c(N5CCC6(CCNCC6)CC5)ccnc43)c(F)c2)C1 [Example 70, (S)-2-fluoro-4-(3-(2-fluoro-4-(3-methoxypyrrolidine-1-yl)phenyl)-7-(3,9-diazaspiro[5.5]undecan-3-yl)-3H-imidazo[4,5-b]pyridine-2-yl) benzonitrile]
– | – | 44 | CO[C@H]1CCN(c2ccc(-n3c(-c4ccc(C#N)c(F)c4)nc4c(N5CC6CNCC(C6)C5)ccnc43)c(F)c2)C1 [Example 71, 4-(7-(3,7-diazabicyclo[3.3.1]nonane-3-yl)-3-(2-fluoro-4-((S)-3-methoxypyrrolidine-1-yl)phenyl)-3H-imidazo[4,5-b]pyridine-2-yl)-2-fluorobenzonitrile]
28 | – | – | N#Cc1ccc(-c2nc3c(N4CCCC[C@@H](N)C4)ccnc3n2-c2ccc(N3CC4COCC4C3)cc2F)cc1F (stereo partly drawn) [Example 73, 4-(7-((R)-3-aminoazepane-1-yl)-3-(2-fluoro-4-(tetrahydro-1H-furo[3,4-c]pyrrole-5(3H)-yl)phenyl)-3H-imidazo[4,5-b]pyridine-2-yl)-2-fluorobenzonitrile]

Compound | IC50 [1] [nM] | GI50 [2] [nM] | GI50 ([2]; Homo sapiens, 240 h) [nM]
N#Cc1ccc(-c2nc3c(N4CC[C@@H](N)C4)ccnc3n2-c2ccc(C3CC3)cc2)cc1 [Example 2, (R)-4-(7-(3-aminopyrrolidine-1-yl)-3-(4-cyclopropylphenyl)-3H-imidazo[4,5-b]pyridine-2-yl)benzonitrile] | 162 | – | 40
